Assay results from ChEMBL document CHEMBL1938350, “Recent progress in biological activities of synthesized phenothiazines” (Eur J Med Chem, 2011).
pIC50: −log10 of the molar value. Converted amounts (≈) assume the structure as drawn.

Legend:
Saccharomyces cerevisiae = test: Antifungal activity against Saccharomyces cerevisiae; type: functional
[1] = test system: Trichophyton mentagrophytes; test: Antifungal activity against Trichophyton mentagrophytes; type: functional
[2] = Cytotoxicity against human leukemia cells; type: functional; details: Leukemia cell
[3] = Cytotoxicity against human colon cancer cells; type: functional; details: Cancer cell lines, read-out: LC50 (the source's name)
WI-38 [4] = test: Antimitotic activity against human non-transformed WI38 cells assessed as cell viability at 5 uM after 1 day; type: functional; details: WI-38, 24 h, read-out: Activity
WI-38 [5] = test: Antimitotic activity against human non-transformed WI38 cells assessed as monoastral spindle formation at 5 uM after 1 day; type: functional
[6] = target: T1, Kinesin-like protein KIF11 (Homo sapiens, UniProt P52732); test: Inhibition of mitotic kinesin Eg5 in human transformed WI38VA13 cells assessed as inhibition of microtubule-activated ATPase activity; type: cell-based
T1 sequence (P52732 whole entry): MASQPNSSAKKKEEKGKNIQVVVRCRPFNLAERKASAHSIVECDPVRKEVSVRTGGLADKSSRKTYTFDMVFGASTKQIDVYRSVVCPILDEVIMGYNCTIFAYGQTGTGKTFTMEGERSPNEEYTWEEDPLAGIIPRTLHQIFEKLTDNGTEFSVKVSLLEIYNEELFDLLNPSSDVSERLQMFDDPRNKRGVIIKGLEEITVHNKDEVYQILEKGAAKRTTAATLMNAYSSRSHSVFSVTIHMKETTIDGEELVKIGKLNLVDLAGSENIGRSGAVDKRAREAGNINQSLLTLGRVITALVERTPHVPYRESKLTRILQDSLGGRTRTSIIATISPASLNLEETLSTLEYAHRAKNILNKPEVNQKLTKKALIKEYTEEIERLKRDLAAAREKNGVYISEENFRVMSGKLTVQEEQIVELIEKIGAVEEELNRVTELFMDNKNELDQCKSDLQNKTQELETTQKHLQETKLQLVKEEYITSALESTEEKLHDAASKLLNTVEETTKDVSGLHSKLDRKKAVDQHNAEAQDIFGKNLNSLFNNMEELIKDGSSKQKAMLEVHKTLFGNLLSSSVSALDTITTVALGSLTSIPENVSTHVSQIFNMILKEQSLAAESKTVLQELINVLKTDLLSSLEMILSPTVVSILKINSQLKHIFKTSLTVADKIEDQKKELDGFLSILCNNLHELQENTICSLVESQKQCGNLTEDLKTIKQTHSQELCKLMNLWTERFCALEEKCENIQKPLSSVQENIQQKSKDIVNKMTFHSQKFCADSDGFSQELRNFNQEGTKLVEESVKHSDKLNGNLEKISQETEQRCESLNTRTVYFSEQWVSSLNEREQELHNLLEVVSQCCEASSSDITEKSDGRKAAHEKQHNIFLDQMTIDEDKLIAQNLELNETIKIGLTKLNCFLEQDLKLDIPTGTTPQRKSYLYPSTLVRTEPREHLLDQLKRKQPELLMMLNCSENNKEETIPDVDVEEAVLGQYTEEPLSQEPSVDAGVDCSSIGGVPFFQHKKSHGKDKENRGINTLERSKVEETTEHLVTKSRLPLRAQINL

SK-MEL-5 = test: Cytotoxicity against human SK-MEL-5 cells; type: functional
IGROV-1 = test: Cytotoxicity against human IGROV1 cells; type: functional
[7] = Potentiation of doxorubicin-induced cytotoxicity against human A2780/DX3 cells after 16 hrs; type: functional
[8] = Antiplatelet activity in rabbit platelets assessed as inhibition of collagen-induced platelet aggregation; type: functional, cell-based, Oryctolagus cuniculus
Mus musculus = test: Antiinflammatory activity in mouse assessed as inhibition of edema formation; type: functional
[9] = Antiplatelet activity in rabbit platelets assessed as inhibition of arachidonic acid-induced platelet aggregation; type: functional, cell-based, Oryctolagus cuniculus
[10] = Toxicity in rat; type: organism-based; details: in vivo, read-out: ALD50
Rattus norvegicus = species on record: Rattus norvegicus; test: Anticonvulsant activity in rat assessed as inhibition of seizures; type: functional
[11] = Oryctolagus cuniculus, Platelet

Question: With `NCCCCN1c2ccccc2Sc2ccc(C(F)(F)F)cc21` as the compound, how does the MIC (Saccharomyces cerevisiae) read?
Answer: 0.4 µg/mL (≈ 1.18 µM)

Question: And the MIC [1]?
Answer: 1.5 µg/mL (≈ 4.43 µM)

Question: For `O=C(NCCCl)NCCCCN1c2ccccc2Sc2ccc(Cl)cc21`, which GI50 [2] is on record?
Answer: 1400 nM

Question: And the CC50 [3]?
Answer: 5700 nM

Question: Which viability at 5 µM (WI-38 [4]) does the source give for `OC(CNCCc1ccccc1)CN1c2ccccc2Sc2ccc(Cl)cc21` (stereo unspecified) here?
Answer: 90%

Question: What about the Activity (WI-38 [5]) of the same compound?
Answer: 90%

Question: What about the pIC50 [6] of the same compound?
Answer: 5.82

Question: For `O=C(NCCCl)NCCN1c2nc3ccccc3cc2Sc2cc3ccccc3nc21`, which GI50 (SK-MEL-5) is on record?
Answer: 88 nM

Question: For `CCN(CC)CCN1c2nc3ccccc3cc2Sc2cc3ccccc3nc21`, which GI50 (IGROV-1) is on record?
Answer: 190 nM

Question: Which “fold change (FC)” value [7] does the source give for `O=C(CSCC1CCCN2CCCCC12)N1c2ccccc2Sc2ccc(Cl)cc21` (stereo unspecified) here?
Answer: 3.96

Question: With `O=C(CSCC1CCCN2CCCCC12)N1c2ccccc2Sc2ccc(C(F)(F)F)cc21` (stereo unspecified) as the compound, how does the “fold change (FC)” value [7] read?
Answer: 3.96

Question: For `COc1ccc2c(c1)N(C(=O)CCSCC1CCCN3CCCCC13)c1ccccc1S2` (stereo unspecified), which “fold change (FC)” value [7] is on record?
Answer: 3.96

Question: Which “inhibition (INH)” value [8] does the source give for `CN(C)c1ccc(/C=N/NC(=O)N2c3ccccc3Sc3ccccc32)cc1` here?
Answer: 100%

Question: And the “inhibition (INH)” value (Mus musculus)?
Answer: 20.5%

Question: And the “inhibition (INH)” value [9]?
Answer: 100%

Question: Which results are given for `O=C(O)c1ccc(/C=N/NC(=O)N2c3ccccc3Sc3ccccc32)cc1`?
Answer: inhibition (INH) [8]: 100%; inhibition (INH) (Mus musculus): 51%; inhibition (INH) [9]: 100%

Question: Which results are given for `O=C(N/N=C/c1ccccc1)N1c2ccccc2Sc2ccccc21`?
Answer: pIC50 [8, 11]: 5.64; pIC50 [9, 11]: 5.64

Question: With `NNC(=O)N1c2ccccc2Sc2ccccc21` as the compound, how does the “inhibition (INH)” value [8] read?
Answer: 100%

Question: And the “inhibition (INH)” value [9]?
Answer: 100%

Question: Which results are given for `O=C(N/N=C/C1CCCO1)N1c2ccccc2Sc2ccccc21` (stereo unspecified)?
Answer: inhibition (INH) [8]: 100%; inhibition (INH) [9]: 100%

Question: For `O=C(N/N=C/C1CCCS1)N1c2ccccc2Sc2ccccc21` (stereo unspecified), which “inhibition (INH)” value [8] is on record?
Answer: 100%

Question: And the “inhibition (INH)” value [9]?
Answer: 100%

Question: Which LD50 [10] does the source give for `O=C1NC(=O)C(CNc2nnc(CN3c4ccccc4Sc4ccccc43)o2)C(=O)N1` here?
Answer: 1000 mg/kg

Question: And the “inhibition (INH)” value (Rattus norvegicus)?
Answer: 80%

Question: Which LD50 [10] does the source give for `O=C1NC(=S)NC(=O)C1CNc1nnc(CN2c3ccccc3Sc3ccccc32)s1` here?
Answer: 1000 mg/kg

Question: What about the “inhibition (INH)” value (Rattus norvegicus) of the same compound?
Answer: 80%

Question: For `O=C1N=C([O-])NC1(c1ccccc1)c1ccccc1.[Na+]` [PHENYTOIN SODIUM], which LD50 [10] is on record?
Answer: 1000 mg/kg
